From US10273461B2, “Employing human adipose-derived stem cells to propagate serum-derived hepatitis C virus and use thereof” (FRONTIER BIO-DRUG DEVELOPMENT LIMITED, priority 2015, dated 2019)

System: HCVser-1b
Test: Drug inhibition assay in HCVser-infected hADSC
Type: cell-based, hepatitis C virus
Settings: p4-5 hADSC, graded concentrations, 21 days' cell lysates, qRT-PCR, IFNα as 16 h pretreatment

Compound	HCV replication (viral 5'-UTR transcripts, fraction inhibition vs vehicle control)
IFNα	inhibited in a dose-responsive manner
cyclosporine A	inhibited in a dose-responsive manner
NC(=O)c1ncn([C@@H]2O[C@H](CO)[C@@H](O)[C@H]2O)n1 [ribavirin]	inhibited in a dose-responsive manner
